The values below come from patent publication US9260429B2, “Pyrido[3,4-B]indoles and methods of use” (Medivation Technologies, Inc., priority 2008, dated 2016).

For assay [1], the target named is T1, human recombinant adrenergic α2B receptor (Homo sapiens, UniProt P18089).
T1 construct: expressed in transfected cells; host or cells: CHO-K1 cells
T1 sequence (P18089 1-450): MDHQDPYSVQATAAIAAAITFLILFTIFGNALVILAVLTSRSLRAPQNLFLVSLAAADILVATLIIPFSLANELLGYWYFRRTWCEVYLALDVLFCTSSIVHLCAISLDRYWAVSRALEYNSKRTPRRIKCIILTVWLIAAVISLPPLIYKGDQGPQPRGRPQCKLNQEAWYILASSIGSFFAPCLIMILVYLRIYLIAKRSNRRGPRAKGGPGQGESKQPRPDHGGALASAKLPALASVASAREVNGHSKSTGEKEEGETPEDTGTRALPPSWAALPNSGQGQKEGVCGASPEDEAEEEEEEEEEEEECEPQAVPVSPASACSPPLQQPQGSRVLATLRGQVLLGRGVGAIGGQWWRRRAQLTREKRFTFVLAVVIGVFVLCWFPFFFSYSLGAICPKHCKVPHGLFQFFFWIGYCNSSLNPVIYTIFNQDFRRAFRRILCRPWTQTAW
As to the kind of experiment: Adrenergic α2B radioligand binding ([3H]Rauwolscine). Particulars: 1 h; read-out: Percent Inhibition of ligand binding Adrenergic (1 μM ligand conc.) α2B. Here is the method:
To evaluate in radioligand binding assays the activity of compounds of the invention, human recombinant adrenergic α2B receptor expressed in Chinese hamster ovary (CHO-K1) cells (Uhlen S et al. Eur J. Pharmacol. 343(1):93, 1998) in a modified Tris-HCl buffer (50 mM Tris-HCl, pH 7.4, 12.5 mM MgCl2, 1 mM EDTA, 0.2% BSA) was used. Compounds of the invention were incubated with 2.5 nM [^3H]Rauwolscine for 60 minutes at 25° C. Non-specific binding was estimated in the presence of 10 μM Prozosin. Receptor proteins were filtered and washed, the filters were then counted to determine [^3H]Rauwolscine specifically bound. Compounds were screened at 1 μM or lower, using 1% DMSO as vehicle. Biochemical assay results are presented as the percent inhibition of specific binding in Table 4.

Assay [2] deals with T2, human recombinant histamine H2 receptor (Homo sapiens, UniProt P25021).
T2 construct: expressed in transfected cells; host or cells: CHO-K1 cells
As to the kind of experiment: Histamine H2 radioligand binding ([125I]Aminopotentidine). Particulars: 1 μM; inhibition of specific [125I]Aminopotentidine binding; read-out: Binding data (Percentage Inhibition) Histamine Binding (1 μM) H2. A digest of the protocol:
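Membranes of CHO-K1 cells expressing human H2 receptor incubated with 0.1 nM [125I]aminopotentidine, 120 min, 25 °C, 50 mM phosphate pH 7.4; nonspecific binding defined with 3 μM tiotidine.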

The target in assay [3] is T3, human recombinant serotonin (5-Hydroxytryptamine) 5-HT2A receptor (Homo sapiens, UniProt P28223).
T3 construct: expressed in transfected cells; host or cells: CHO-K1 cells
Nature of the assay: Serotonin 5-HT2A radioligand binding ([3H]Ketanserin). Conditions: 1 h; read-out: Percent Inhibition of ligand binding Serotonin (1 μM ligand concentration) 5-HT2A. A digest of the protocol: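 Membranes from CHO-K1 cells expressing the receptor, in 50 mM Tris-HCl pH 7.4, incubated 60 min at 25° C with 0.5 nM [3H]Ketanserin; 1 μM Mianserin defines non-specific binding. Filtration and counting; values are % inhibition of specific binding at 1 μM or lower, 1% DMSO.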

For assay [4], the target named is T4, human recombinant serotonin (5-Hydroxytryptamine) 5-HT6 receptor (Homo sapiens, UniProt P50406).
T4 construct: expressed in transfected cells; host or cells: human HeLa cells
As to the kind of experiment: Serotonin 5-HT6 radioligand binding ([3H]LSD). Conditions: 2 h; read-out: Percent Inhibition of ligand binding Serotonin (1 μM ligand concentration) 5-HT6. The essentials: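 Human 5-HT6 receptor expressed in HeLa cells, in Tris-HCl pH 7.4 with 150 mM NaCl, ascorbic acid and BSA. Compounds at 1 μM or lower (1% DMSO) incubated 120 min at 37° C with 1.5 nM [3H]LSD. Non-specific binding defined with serotonin; filter counting gives % inhibition of specific binding.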

Assay [5] deals with T5, human recombinant serotonin (5-Hydroxytryptamine) 5-HT2C receptor (Homo sapiens, UniProt P28335).
T5 construct: expressed in transfected cells; host or cells: CHO-K1 cells
T5 sequence (P28335 33-458): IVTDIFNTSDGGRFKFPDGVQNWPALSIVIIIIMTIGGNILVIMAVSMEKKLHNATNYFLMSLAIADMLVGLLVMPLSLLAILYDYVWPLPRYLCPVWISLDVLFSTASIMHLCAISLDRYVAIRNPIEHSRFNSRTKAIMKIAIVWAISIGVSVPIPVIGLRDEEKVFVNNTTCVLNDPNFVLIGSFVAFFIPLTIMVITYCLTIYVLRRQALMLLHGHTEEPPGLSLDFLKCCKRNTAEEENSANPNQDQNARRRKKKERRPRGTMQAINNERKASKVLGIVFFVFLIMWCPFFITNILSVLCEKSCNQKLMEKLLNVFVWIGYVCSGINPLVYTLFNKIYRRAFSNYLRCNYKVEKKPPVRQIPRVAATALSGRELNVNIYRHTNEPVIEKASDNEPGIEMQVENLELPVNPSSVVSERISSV
Nature of the assay: Serotonin 5-HT2C radioligand binding ([3H]Mesulergine). Particulars: for inhibition at 1 µM: 1 h, read-out: Percent Inhibition of ligand binding Serotonin (1 μM ligand concentration) 5-HT2C. Here is the method: Compounds of the invention were incubated with 1 nM [^3H]Mesulergine for 60 minutes at 25° C. Non-specific binding was estimated in the presence of 1 μM Mianserin. Receptor proteins were filtered and washed, the filters were then counted to determine [^3H]Mesulergine specifically bound. […] Biochemical assay results are presented as the percent inhibition of specific binding in Table 5.

Each structure is given as a SMILES string.

T3 sequence (P28223 whole entry): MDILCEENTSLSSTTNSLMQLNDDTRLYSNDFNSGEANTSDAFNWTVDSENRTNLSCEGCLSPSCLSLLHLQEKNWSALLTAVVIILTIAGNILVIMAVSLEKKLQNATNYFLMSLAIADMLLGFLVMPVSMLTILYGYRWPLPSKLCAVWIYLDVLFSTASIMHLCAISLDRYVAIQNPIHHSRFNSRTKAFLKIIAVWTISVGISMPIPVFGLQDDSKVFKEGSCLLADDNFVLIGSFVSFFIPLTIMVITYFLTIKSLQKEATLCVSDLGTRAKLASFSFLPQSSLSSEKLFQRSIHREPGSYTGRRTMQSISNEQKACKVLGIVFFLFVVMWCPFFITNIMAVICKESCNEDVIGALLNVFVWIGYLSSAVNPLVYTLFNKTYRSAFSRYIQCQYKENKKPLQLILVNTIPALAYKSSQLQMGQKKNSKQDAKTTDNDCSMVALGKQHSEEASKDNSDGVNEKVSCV
T4 sequence (P50406 whole entry): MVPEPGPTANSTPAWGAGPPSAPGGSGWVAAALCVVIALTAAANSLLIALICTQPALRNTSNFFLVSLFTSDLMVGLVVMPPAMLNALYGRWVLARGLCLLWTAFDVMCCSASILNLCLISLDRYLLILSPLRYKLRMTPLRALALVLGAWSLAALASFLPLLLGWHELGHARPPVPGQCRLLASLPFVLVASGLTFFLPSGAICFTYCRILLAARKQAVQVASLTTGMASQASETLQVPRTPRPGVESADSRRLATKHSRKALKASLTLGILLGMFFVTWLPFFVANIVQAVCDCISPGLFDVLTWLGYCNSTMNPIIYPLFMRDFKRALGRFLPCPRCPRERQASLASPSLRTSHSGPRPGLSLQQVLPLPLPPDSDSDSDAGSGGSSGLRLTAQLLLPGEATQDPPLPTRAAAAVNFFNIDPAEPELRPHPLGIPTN
T2 sequence (P25021 whole entry): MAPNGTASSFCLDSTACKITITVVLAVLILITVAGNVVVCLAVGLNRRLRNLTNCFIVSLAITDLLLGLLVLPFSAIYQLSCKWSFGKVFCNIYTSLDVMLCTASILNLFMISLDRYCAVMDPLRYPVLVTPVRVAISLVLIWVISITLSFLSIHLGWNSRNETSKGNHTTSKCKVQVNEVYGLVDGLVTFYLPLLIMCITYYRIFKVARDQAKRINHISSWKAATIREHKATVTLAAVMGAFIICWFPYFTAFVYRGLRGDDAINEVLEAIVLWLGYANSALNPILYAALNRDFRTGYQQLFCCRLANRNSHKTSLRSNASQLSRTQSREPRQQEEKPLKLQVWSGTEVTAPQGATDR

In the case of `CN1CCc2c(n(CC(O)c3ccccc3)c3ccc(Cl)cc23)C1` (centres unmarked) [Compound 71], the inhibition at 1 µM was 95% in assay [1]; 11% in assay [2]; 87% in assay [3]; 66% in assay [4]; 81% in assay [5].

With `CCC1c2c(c3cc(C)ccc3n2C#Cc2ccc(Cl)cc2)CCN1C` (centres unmarked) [Compound 162, 9-((4-chlorophenyl)ethynyl)-1-ethyl-2,6-dimethyl-2,3,4,9-tetrahydro-1H-pyrido[3,4-b]indole], the inhibition at 1 µM in assay [1] is 85%; in assay [2], 33%; in assay [3], 98%; in assay [4], 12%; in assay [5] it was 101%.

As to `CN1CCc2c(n(CCCc3ccccc3)c3ccc(Cl)cc23)C1` [Compound 29, 6-chloro-2,3,4,9-tetrahydro-2-methyl-9-(3-phenylpropyl)-1H-pyrido[3,4-b]indole], the inhibition at 1 µM came to 79% in assay [1]; 60% in assay [2]; 83% in assay [3]; 62% in assay [4]; 90% in assay [5].

As to `CCC1c2c(c3cc(C)ccc3n2/C=C(\C)c2ccc(Cl)cc2)CCN1C` (centres unmarked) [Compound 160, 9-(2-(4-chlorophenyl)prop-1-enyl)-1-ethyl-2,6-dimethyl-2,3,4,9-tetrahydro-1H-pyrido[3,4-b]indole], the inhibition at 1 µM in assay [1] was determined as 75%; in assay [2] it was 67%; in assay [3], 95%; in assay [4], 24%; in assay [5], 103%.

For `CN1CCc2c(n(CCc3ccc(F)cc3)c3ccc(Cl)cc23)C1` [Compound 3, 9-(4-fluorophenethyl)-6-chloro-2,3,4,9-tetrahydro-2-methyl-1H-pyrido[3,4-b]indole], the inhibition at 1 µM in assay [1] worked out at 108%; in assay [2], 51%; in assay [4] it was 100%; in assay [5], 90%.

In the case of `COc1ccc(C(O)Cn2c3c(c4cc(C)ccc42)CCN(C)C3)cc1OC` (centres unmarked) [Compound 66], the inhibition at 1 µM was 74% in assay [1]; 1% in assay [2]; 51% in assay [3]; 5% in assay [4]; 48% in assay [5].

With `CCC1c2c(c3cc(Cl)ccc3n2/C=C(\C)c2ccc(Cl)cc2)CCN1C` (centres unmarked) [Compound 100, 6-chloro-9-(2-(4-chlorophenyl)prop-1-enyl)-1-ethyl-2-methyl-2,3,4,9-tetrahydro-1H-pyrido[3,4-b]indole], the inhibition at 1 µM worked out at 53% in assay [1]; 39% in assay [2]; 87% in assay [3]; 23% in assay [4]; 98% in assay [5].

In the case of `CN1CCc2c(n(CC(=O)Nc3ccc(F)cc3)c3ccc(Cl)cc23)C1` [Compound 15, 2-(6-chloro-1,2,3,4-tetrahydro-2-methylpyrido[3,4-b]indol-9-yl)-N-(4-fluorophenyl)acetamide], the inhibition at 1 µM in assay [1] is 8%; in assay [2] it was -3%; in assay [3] it was 6%; in assay [4], -2%; in assay [5], 15%.

As to `CN1CCc2c(n(CC(=O)N(C)C)c3ccc(Cl)cc23)C1` [Compound 16, 2-(6-chloro-1,2,3,4-tetrahydro-2-methylpyrido[3,4-b]indol-9-yl)-N,N-dimethylacetamide], the inhibition at 1 µM was -7% in assay [1]; 1% in assay [2]; 10% in assay [3]; 9% in assay [4]; -18% in assay [5].

Consider `Cc1ccc2c(c1)c1c(n2C(=O)Cc2ccc(Cl)cc2)C(c2ccccc2)N(C)CC1` (centres unmarked) [Compound 163], for which the inhibition at 1 µM in assay [1] is 37%; in assay [2], 27%; in assay [3] it was 98%; in assay [4], 89%; in assay [5], 96%.

On to `C/C(=C\n1c2c(c3cc(C)ccc31)CCN(C)C2C)c1ccc(Cl)cc1` (centres unmarked) [Compound 161, 9-(2-(4-chlorophenyl)prop-1-enyl)-1,2,6-trimethyl-2,3,4,9-tetrahydro-1H-pyrido[3,4-b]indole], for which the inhibition at 1 µM worked out at 92% in assay [1]; 82% in assay [2]; 96% in assay [3]; 75% in assay [4]; 99% in assay [5].

Regarding `CC1c2c(c3cc(Cl)ccc3n2C#Cc2ccc(F)cc2)CCN1C` (centres unmarked) [Compound 128], the inhibition at 1 µM in assay [1] turned out to be 94%; in assay [2] it was 53%; in assay [3], 95%; in assay [4], 90%; in assay [5], 101%.

In the case of `Cc1ccc(CCn2c3c(c4cc(Cl)ccc42)CCN(C)C3C)cn1` (centres unmarked) [Compound 80], the inhibition at 1 µM in assay [1] stood at 100%; in assay [2] it was 18%; in assay [3] it was 56%; in assay [4] it was 23%; in assay [5] it was 79%.

For `CC1CCN(C(=O)Cn2c3c(c4cc(Cl)ccc42)CCN(C)C3)CC1` [Compound 38, 2-(6-chloro-1,2,3,4-tetrahydro-2-methylpyrido[3,4-b]indol-9-yl)-1-(4-methylpiperidin-1-vyl)ethanone], the inhibition at 1 µM in assay [1] is 15%; in assay [2], 3%; in assay [4], -2%; in assay [5], 14%.

For `Cc1ccc2c(c1)c1c(n2CCC2CCCCC2)CN(C)CC1` [Compound 2, 9-(2-cyclohexylethyl)-2,3,4,9-tetrahydro-2,6-dimethyl-1H-pyrido[3,4-b]indole], the inhibition at 1 µM was determined as 81% in assay [1], 71% in assay [2], 58% in assay [4] and 84% in assay [5].

For `C#CCn1c2c(c3cc(Cl)ccc31)CCN(C)C2` [Compound 125, 6-chloro-2,3,4,9-tetrahydro-2-methyl-9-(prop-2-yn1)-1H-pyrido[3,4-b]indole], the inhibition at 1 µM in assay [1] was determined as 67%; in assay [2] it was 9%; in assay [4], 66%. In addition, the “Percent Inhibition of ligand binding Serotonin (1 μM ligand concentration) 5-HT2C” value in assay [5] (1 μM ligand concentration) turned out to be 74%.

Regarding `Cc1ccc2c(c1)c1c(n2CCc2ccc(C)nc2)CN(C)CC1` [Compound 1, 2,3,4,9-tetrahydro-2,6-dimethyl-9-(2-(6-methylpyridin-3-yl)ethyl)-1H-pyrido[3,4-b]indole], the inhibition at 1 µM was 99% in assay [1], 5% in assay [2], 5% in assay [4] and 25% in assay [5].
